Consider two molecules from US20250017891A1, “PHARMACEUTICAL COMPOSITION COMPRISING CABAZITAXEL PRODRUG-CYCLODEXTRIN INCLUSION COMPLEX, AND APPLICATIONS THEREOF” (TWI PHARMACEUTICALS, INC., priority 2023, published 2025).

Where “and” joins values, the source holds several entries; their conditions need not be identical. Equal values may be shown once. Read-outs that look alike come from different tables or passages of the source.

The nature of series [1]: In vivo bioconversion of CBT succinate in 50% PEG300 formulation, IV, mouse plasma by LC-MS/MS. Set-up: species or system ICR male mice. The note with it: 15 mg/kg IV. Here is the method: The bioanalysis results are tabulated as Tables 1 to 3 below. The values of mean and standard deviation (SD) are calculated. BLOQ means “below the limit of quantification”, and N/A means “not available”. Normal saline used herein is 0.90% sodium chloride aqueous solution.
C0: Initial concentration; • 3. […] AUC/D: AUC divided by dose; • 6.

Series [2] in a line: Hydrolysis of CBT succinate dissolved in the aqueous preclinical formulation. Format: physicochemical. The conditions noted are these: 50% PEG300 in normal saline.
Series [3] in a line: Saturation test of CBT succinate-SBECD (1:2.2), solubility. It counts as physicochemical. The note with it: aqueous buffer, thermodynamic from solid, excess complex dissolved by 20 mM pH 8.0 phosphate buffer, read-out: CBT succinate water solubility. From the text: For the CBT succinate-SBECD (1:2.2), a saturation test was further carried out.
For series [4] the following is noted: even in the mixed solvent of water and organic reagent; cited from earlier work.
Setting [5] is: analyte Cabazitaxel in mouse plasma, CBT succinate in 50% PEG300 formulation, time 24 h.
Setting [6] is: male, ICR, mouse plasma, CBT succinate in 50% PEG300 formulation.
The mark [7] stands for this setting: mouse plasma, CBT succinate in 50% PEG300 formulation.
[8] abbreviates: mouse plasma, CBT succinate in 50% PEG300 formulation, time 4 h.
Setting [9] is: mouse plasma, CBT succinate in 50% PEG300 formulation, time 8 h.
[10] abbreviates: mouse plasma, CBT succinate in 50% PEG300 formulation, time 24 h.

Take `CO[C@H]1C(=O)[C@]2(C)[C@@H](OC)C[C@H]3OC[C@@]3(OC(C)=O)[C@H]2[C@H](OC(=O)c2ccccc2)[C@]2(O)C[C@H](OC(=O)[C@H](OC(=O)CCC(=O)O)[C@@H](NC(=O)OC(C)(C)C)c3ccccc3)C(C)=C1C2(C)C` [CBT succinate, cabazitaxel succinate]: the “CBT concentration (individual mouse)” value is recorded as “BLOQ” in series [1] (analyte Cabazitaxel in mouse plasma, CBT succinate in 50% PEG300 formulation, time 8 h, 15 mg/kg) and “BLOQ” in series [1] (setting [5]). The “CBT concentration, Mean” value in series [1] (setting [5]) is reported as “BLOQ”. Also, the concentration at 0.083 h came out at 5980 ng/mL in series [1] (male, ICR, mouse, plasma, iv, 15 mg/kg, mouse plasma, CBT succinate in 50% PEG300 formulation, time 0.083 h, read-out: CBT succinate concentration (individual mouse)) and 5750 ng/mL in series [1] (male, ICR, mouse, plasma, iv, 15 mg/kg, mouse plasma, CBT succinate in 50% PEG300 formulation, time 0.083 h, read-out: CBT succinate concentration, Mean). For the same molecule, the concentration at 0.167 h was found to be 3100 ng/mL in series [1] (male, ICR, mouse, plasma, iv, 15 mg/kg, mouse plasma, CBT succinate in 50% PEG300 formulation, time 0.167 h, read-out: CBT succinate concentration (individual mouse)) and 3030 ng/mL in series [1] (male, ICR, mouse, plasma, iv, 15 mg/kg, mouse plasma, CBT succinate in 50% PEG300 formulation, time 0.167 h, read-out: CBT succinate concentration, Mean). In series [1] (male, ICR, mouse, plasma, iv, 15 mg/kg, mouse plasma, CBT succinate in 50% PEG300 formulation, time 0.5 h), the concentration at 0.5 h amounted to 386 ng/mL. The molecule further returned a concentration at 1 h in series [1] (male, ICR, mouse, plasma, iv, 15 mg/kg, mouse plasma, CBT succinate in 50% PEG300 formulation, time 1 h) of 50 ng/mL. The concentration at 2 h turned out to be 15 ng/mL in series [1] (male, ICR, mouse, plasma, iv, 15 mg/kg, mouse plasma, CBT succinate in 50% PEG300 formulation, time 2 h, read-out: CBT succinate concentration (individual mouse)) and 15 ng/mL in series [1] (male, ICR, mouse, plasma, iv, 15 mg/kg, mouse plasma, CBT succinate in 50% PEG300 formulation, time 2 h, read-out: CBT succinate concentration, Mean). The same molecule returned a C0 in series [1] (setting [6]) of 10800 ng/mL. The MRT in series [1] (setting [6]) came out at 9.6 min. Besides, the AUC(0-inf) in series [1] (male, ICR, mouse plasma, CBT succinate in 50% PEG300 formulation, read-out: AUCInf of CBT Succinate) was 1770 ng·h/mL. Moreover, the AUC(0-t) in series [1] (male, ICR, mouse plasma, CBT succinate in 50% PEG300 formulation, read-out: AUClast of CBT Succinate) turned out to be 1770 ng·h/mL. The clearance in series [1] (male, ICR, mouse plasma, CBT succinate in 50% PEG300 formulation, read-out: CL of CBT Succinate) worked out at 141 mL/min/kg. The Vd in series [1] (male, ICR, mouse plasma, CBT succinate in 50% PEG300 formulation, read-out: Vss of CBT Succinate) was determined as 1.38 L/kg. In series [1] (male, ICR, mouse plasma, CBT succinate in 50% PEG300 formulation, read-out: t1/2 of CBT Succinate (converted)), the half-life is 13.8 min. Moreover, the “bioconversion of CBT succinate to CBT” value in series [1] (mice, 50% PEG300 formulation) was “very rapidly”. Further, the “AUC Extr of CBT Succinate” value in series [1] (setting [7]) was 0.28%. Also, the “AUC/D of CBT Succinate” value in series [1] (setting [7]) is 118 kg·ng·h/mL/mg. In addition, the “CBT succinate concentration (individual mouse)” value in series [1] (mouse plasma, CBT succinate in 50% PEG300 formulation, time 0.083 h, 15 mg/kg) is 5803 ng/mL and 5480 ng/mL; in series [1] (mouse plasma, CBT succinate in 50% PEG300 formulation, time 0.167 h, 15 mg/kg), 3144 ng/mL and 2857 ng/mL; in series [1] (mouse plasma, CBT succinate in 50% PEG300 formulation, time 0.5 h, 15 mg/kg), 541 ng/mL and 397 ng/mL and 221 ng/mL; in series [1] (mouse plasma, CBT succinate in 50% PEG300 formulation, time 1 h, 15 mg/kg), 25 ng/mL and 51 ng/mL and 73 ng/mL; in series [1] (mouse plasma, CBT succinate in 50% PEG300 formulation, time 2 h, 15 mg/kg), “BLOQ”; in series [1] (setting [8]) it was “BLOQ”. For the same molecule, the “CBT succinate concentration (individual mouse)” value in series [1] (setting [9]) and in series [1] (setting [10]) was “BLOQ” in each case. Also, the “CBT succinate concentration, Mean” value in series [1] (setting [8]), in series [1] (setting [9]) and in series [1] (setting [10]) was “BLOQ” each time. Moreover, the “hydrolysis when dissolved in the aqueous preclinical formulation” value in series [2] is “prone to hydrolysis”. For the same molecule, the solubility in series [3] was 120 µg/mL.
On to `CO[C@H]1C(=O)[C@]2(C)[C@@H](OC)C[C@H]3OC[C@@]3(OC(C)=O)[C@H]2[C@H](OC(=O)c2ccccc2)[C@]2(O)C[C@H](OC(=O)[C@H](O)[C@@H](NC(=O)OC(C)(C)C)c3ccccc3)C(C)=C1C2(C)C` [cabazitaxel], for which, in series [4], the solubility entry was “almost insoluble”.
